Measurements reported in patent publication US20230146455A1, “TREATMENT OF INFLAMMATORY DISEASES WITH PEPTIDES AND PHARMACEUTICAL COMPOSITIONS” (Yuyu Pharma, Inc., priority 2020, published 2023).
Entries after “also recorded” stand apart in the source; their conditions may differ. Where a SMILES comes first, the peptide text is derived from it. [ ]: non-standard residue; d: D form. Hyp = O=C(O)[C@@H]1C[C@@H](O)CN1

System: cytokine and chemokine release in human peripheral blood mononuclear cells (hPBMCs)
Experiment: Luminex multiplex, 30 cytokines and chemokines, LPS stimulated hPBMCs (Example 9, Study 2), whole panel
Type: cell-based
Settings: for LPS-induced pro-inflammatory cytokines and chemokines, whole panel (in words): LPS 5 ug/mL 24 hrs, 100 uM to 1 nM
Experimental: Human PBMCs frozen purchased from ATCC in a cryo-preservative were thawed, washed with Hank's Balanced Salt Solution containing 10% fetal bovine serum, and seeded onto a 24-well plate at a density of 0.5×10^6 cells/well with culture RPMI media containing 10% fetal bovine serum in growth media in a 24 well plate for 24 hrs and maintained at 37° C. in an atmosphere of 95% air and 5% CO2. At the end of 24 hr culture, cells are pretreated with YY-101, YDE-011 and YDE-043 or reference compound, Xiidra® at various concentrations for 2 h before stimulation. An equal volume of 0.5% DMSO is used as a vehicle control. Then, the cells are treated with LPS. Supernatants from treated cells are harvested at 24 hr post-LPS treatment and placed in 96 well for Luminex cytokine & chemokine profiling using a Luminex 200 multiplex assay.
Human PBMCs frozen in a cryopreserve was thawed, washed with Hank's Balanced Salt Solution containing 10% Fetal bovine serum, and seeded onto a 24-well plate at a density of 0.5×10^6 cells/well with culture RPMI media containing 10% Fetal bovine serum in growth media in a 24 well plate for 24 hrs and maintained at 37° C. in an atmosphere of 95% air and 5% CO2.
Treatment Human PBMCs were pretreated with YY-101, YDE-011 and YDE-043 or reference compound; Xiidra® at various concentration (ranging from 1 nM to 100 uM) for 2 h before stimulation. An equal volume of 0.5% DMSO was used as a vehicle control. Then, the cells were treated with LPS at 5 ug/ml. The supernatants from treated cells were harvested at 24 h and placed in a 96 well for Luminex cytokine & chemokine profiling using a Luminex 200 multiplex assay (Luminex; R&D system, USA).
The main study arm with triplicate wells per group in a 24-well plate: • 1. Blank • 2. PBMC: 0.5% DMSO • 3. PBMC+LPS (5 ug/ml) • 4. PBMC+YY-101 100 uM • 5. PBMC+YY-101 10 uM • 6. PBMC+YY-101 1 uM • 7. PBMC+YY-101 0.1 uM • 8. PBMC+YY-101 0.01 uM • 9. PBMC+LPS (5 ug/ml)+Xiidra®100 uM • 10. PBMC+LPS (5 ug/ml)+Xiidra® 10 uM • 11. PBMC+LPS (5 ug/ml)+Xiidra® 1 uM • 12. PBMC+LPS (5 ug/ml)+Xiidra®0.1 uM • 13. PBMC+LPS (5 ug/ml)+Xiidra®0.01 uM • 14. PBMC+LPS (5 ug/ml)+Xiidra®0.001 uM • 15. PBMC+LPS (5 ug/ml)+YY-101 100 uM • 16. PBMC+LPS (5 ug/ml)+YY-101 10 uM • 17. PBMC+LPS (5 ug/ml)+YY-101 1 uM • 18. PBMC+LPS (5 ug/ml)+YY-101 0.1 uM • 19. PBMC+LPS (5 ug/ml)+YY-101 0.01 uM • 20. PBMC+LPS (5 ug/ml)+YY-101 0.001 uM • 21. PBMC+LPS (5 ug/ml)+YDE-011 100 uM • 22. PBMC+LPS (5 ug/ml)+YDE-011 10 uM • 23. PBMC+LPS (5 ug/ml)+YDE-011 1 uM • 24. PBMC+LPS (5 ug/ml)+YDE-011 0.1 uM • 25. PBMC+LPS (5 ug/ml)+YDE-011 0.01 uM • 26. PBMC+LPS (5 ug/ml)+YDE-011 0.001 uM • 27. PBMC+LPS (5 ug/ml)+YDE-043 100 uM • 28. PBMC+LPS (5 ug/ml)+YDE-043 10 uM • 29. PBMC+LPS (5 ug/ml)+YDE-043 1 uM • 30. PBMC+LPS (5 ug/ml)+YDE-043 0.1 uM • 31. PBMC+LPS (5 ug/ml)+YDE-043 0.01 uM • 32. PBMC+LPS (5 ug/ml)+YDE-043 0.001 uM
Multiplex assay was used to measure 30 cytokines and chemokines. The 1:2, 1:10 and 1:200 diluted cell supernatant and serial dilution of the standard were dispensed into a 96 well plate at 50 ul/well. Then, the pre-mixed cocktail of antibody-coated magnetic beads was dispensed at 50 ul/well and incubated at room temperature for 2 h in a horizontal orbital microplate shaker at 800±500 rpm. The beads were washed using a magnetic device to prevent loss. […] The data was calculated with a standard five-parameter logistic nonlinear regression analysis of the data (xPonent software 4.2, USA). […]

| Compound | LPS-induced pro-inflammatory cytokines and chemokines, whole panel (in words) | LPS-induced pro-inflammatory cytokines and chemokines, whole panel (in words) (listed as YDE043) | basal levels of cytokine/chemokine production (in words) (no LPS, up to 100 μM) |
| --- | --- | --- | --- |
| CC(C)C[C@H](NC(=O)CNC(=O)[C@H](CC(C)C)NC(=O)[C@H](CCC(N)=O)NC(=O)CNC(=O)[C@@H]1C[C@@H](O)CN1)C(=O)N[C@@H](C)C(=O)NCC(=O)N1CCC[C@H]1C(=O)N[C@@H](CCCCN)C(=O)O [YDE-011] (H-[Hyp]GQLGLAGPK-OH) | effectively and potently reduced; also recorded: more potent and effective immunomodulators |  |  |
| CC(C)C[C@H](NC(=O)[C@H](CCC(N)=O)NC(=O)CNC(=O)[C@@H]1C[C@@H](O)CN1)C(=O)NCC(=O)O [YDE-043] (H-[Hyp]GQLG-OH; N-terminus and C-terminus assumed) | effectively and potently reduced | more potent and effective immunomodulators |  |
| CC(C)C[C@H](NC(=O)CNC(=O)[C@H](CC(=O)O)NC(=O)[C@H](CCC(N)=O)NC(=O)CNC(=O)[C@@H]1C[C@@H](O)CN1)C(=O)N[C@@H](C)C(=O)NCC(=O)N1CCC[C@H]1C(=O)N[C@@H](CCCCN)C(=O)O [YY-101] (H-[Hyp]GQDGLAGPK-OH; N-terminus and C-terminus assumed) | effectively and potently reduced |  | didn't affect the basal levels of most of cytokine/chemokine production; also recorded: didn't affect the basal levels of cytokine production except TIMP-1 |
